Consider seven molecules from paper PMC9741287, “Cytotoxic and Luminescent Properties of Novel Organotin Complexes with Chelating Antioxidant Ligand” (Molecules, 2022).

Series [1] concerns MCF-7 (human breast cancer). Nature of the series: MTT-test MCF-7. In kind it is cell-based. On the procedure:
Since the investigated compounds are designed as theranostic and cytostatic agents, their toxic impact was evaluated as a standard MTT-test. Cytotoxicity was studied on four cell lines, i.e.,—HCT116 (human colorectal carcinoma), MCF-7 (human breast cancer), A549 (human lung adenocarcinoma), and WI-38 (human fetal lung fibroblast). Obtained results appear to be unorthodox: as it is known, the introduction of an organotin moiety tends to noticeably increase compounds’ toxicity and more lipophilic ones do it better, but in the presented data pattern turns vice versa (Table 3).
HCT-116 (colon carcinoma), MCF-7 (breast adenocarcinoma), A-549 (lung adenocarcinoma) cell lines, and WI-38 (cell line composed of fibroblasts) were derived from The European Collection of Authenticated Cell Cultures (ECACC, Salisbury, UK), cultured in DMEM medium (Gibco™, Dublin, Ireland) supplemented with 10% fetal bovine serum (Gibco™, Brasilia, Brazil). The cells were cultured in an incubator at 37 °C in a humidified 5% CO2 atmosphere and subcultured two times a week.
The toxicity of compounds was studied on cultured cell lines according to standard MTT protocol.
Background: Formazan colour is commonly taken as a measure of viable cells.

The target in series [2] is T1, Soybean lipoxygenase LOX-1B (Glycine max, UniProt P08170).
T1 sequence (P08170 1-839): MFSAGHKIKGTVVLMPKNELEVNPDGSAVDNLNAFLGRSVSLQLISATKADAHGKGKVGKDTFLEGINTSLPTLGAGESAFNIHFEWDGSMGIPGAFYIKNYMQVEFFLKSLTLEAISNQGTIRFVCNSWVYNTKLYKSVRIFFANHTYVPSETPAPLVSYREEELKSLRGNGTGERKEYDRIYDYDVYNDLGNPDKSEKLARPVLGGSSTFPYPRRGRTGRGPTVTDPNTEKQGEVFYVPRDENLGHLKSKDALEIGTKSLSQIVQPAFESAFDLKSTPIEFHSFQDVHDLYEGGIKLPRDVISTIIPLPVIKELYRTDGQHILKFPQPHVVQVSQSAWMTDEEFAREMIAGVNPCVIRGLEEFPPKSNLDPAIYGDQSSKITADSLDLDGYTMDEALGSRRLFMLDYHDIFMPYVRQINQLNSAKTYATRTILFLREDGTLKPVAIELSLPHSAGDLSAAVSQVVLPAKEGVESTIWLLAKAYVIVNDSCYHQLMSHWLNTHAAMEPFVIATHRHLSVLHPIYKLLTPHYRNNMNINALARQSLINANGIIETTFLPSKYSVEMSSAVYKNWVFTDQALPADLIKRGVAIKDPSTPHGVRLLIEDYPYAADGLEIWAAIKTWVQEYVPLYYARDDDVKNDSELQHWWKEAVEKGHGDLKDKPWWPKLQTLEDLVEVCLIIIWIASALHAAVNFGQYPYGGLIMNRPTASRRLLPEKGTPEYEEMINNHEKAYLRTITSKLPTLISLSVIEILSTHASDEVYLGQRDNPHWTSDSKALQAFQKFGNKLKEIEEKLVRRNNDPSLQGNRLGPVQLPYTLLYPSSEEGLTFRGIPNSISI
Nature of the series: Lipoxygenase inhibition assay. In kind it is biochemical. To be noted: 3 µL of 1 mM compound in DMSO per 150 µL, 5 min, 20 °C, 234 nm. The text has this: Lipoxygenases are a group of enzymes catalyzing regioselective oxidation of polyunsaturated fatty acids to corresponding hydroperoxides. […] Soybean lipoxygenase LOX-1B was used as a model enzyme since it is structurally relative to human 5-lipoxygenases. The influence of synthesized compounds 1–7 on the LOX-1B activity was estimated as a formation rate of octadecadienoic acid hydroperoxides (λmax = 234 nm) from the initial acid and was monitored spectrophotometrically (Table 1).
The lipoxygenase activity was evaluated spectrophotometrically. The concentrations of linoleic acid oxidation products, isomeric hydroperoxides, were measured at λmax = 234 nm (ε = 25,000 L mol^−1 cm^−1) with a 96-well microplate spectrophotometer Multiskan Go (Thermo Fisher Scientific, Waltham, MA, USA). The analyzed solution contained 30 µL borate buffer (pH 9.0), 100 µL linoleic acid (0.45 mM) in borate buffer, and 3 µL 1 mM solution of the test compound in DMSO. The reaction was initiated by the addition of 17 µL of lipoxygenase (500 U) solution in borate buffer. The measurements were performed for 5 min at 20 °C.
The inhibition rate I (%) of lipoxygenase was determined by the Equations (2) and (3), where A0 is the absorbance of the control solution, and A1 is the absorbance of the reaction mixture in the presence of the tested compound 5 min after the beginning of the reaction. ΔA is the difference between A1 and A0. All experiments were performed in triplicate.

In the next series the test system is HepG2 cells. Nature of the series: MTT test with HepG2 cells, 48 h. To be noted: HepG2, 48 h. In kind it is cell-based. On the procedure: (§1) Cytotoxic properties of 1 are unusual, so an additional cytotoxicity assay with HepG2 cells was carried out and CC50 values were estimated (Figure 5).
(§2) The fact that ligand 1 itself has cytotoxic properties can be interpreted as the existence of a pharmacological target, specific to 1. The detection of potential targets for ligand 1 involves research on cell cycle influence and many other assays, and will be carried out in future studies.
(§3) Figure 5 An effect of compound 1 at concentrations of 0.001–100 µM on the metabolic activity (viability) of HepG2 cells during 48 h incubation in the MTT test.

The nature of series [3]: MTT test with HepG2 cells, 48 h. In kind it is cell-based. The following applies: human, HepG2 cells; HepG2, 48 h incubation, MTT. On the procedure: as §1, §2, §3
A short description of series [4]: Hydrolysis stability at different pH (UV-vis). In kind it is physicochemical. To be noted: phosphate buffer, pH = 5 and pH = 7; absorbance 250–500 nm. The protocol: Investigations of potential drug pharmacokinetics are an important part of the evaluation of its potential efficacy and applicability. On the base level, this can be studied in vitro as a hydrolysis stability assay at different pH levels. […] The stability of compounds was estimated as an optical density drop at λ = 250–500 nm at pH = 5 and pH = 7 (Figure 3 and Figure 4).
The stability of synthesized compounds was estimated spectrophotometrically. To 1.5 mL of either phosphate buffer with pH = 5.0 or phosphate buffer with pH = 7.4, 300 µL of 2 mM test solution in MeOH was added. Then adsorption spectra at λ = 250–500 nm were recorded for 20 h. Graphs were built using OriginPro 2019b.

Read-outs that look alike come from different tables or passages of the source.

As usually defined, the IC50 is the concentration that inhibits the measured activity by half. High values mean weaker potency in that assay, low ones greater potency in that assay. In series [1], `CCC[CH2][Sn]1([CH2]CCC)[O]C(c2cc(C(C)(C)C)c(O)c(C(C)(C)C)c2)=NN=Cc2ccccc2[O]1` [Compound 4, Bu2SnL] yielded an IC50 of 1.01 ± 0.4 µM. In addition, the “I (LOX Inhibition Assay)” value in series [2] is reported as 47.5 ± 3.8%.

In series [1], `CC(C)(C)c1cc(C2=NN=Cc3ccccc3[O][Sn]([c]3ccccc3)([c]3ccccc3)[O]2)cc(C(C)(C)C)c1O` [Compound 6, Ph2SnL] displayed a concentration for half-maximal inhibition (IC50) of 26.3 ± 3.5 µM. Further, the “I (LOX Inhibition Assay)” value in series [2] came to 44.9 ± 3.7%.

One may read the inhibition as the relative decrease from the control value, in per cent. The term CC50 denotes the concentration at which the toxic effect on the cells reaches its halfway point. One may read the melting point as the temperature, or range, at which the solid turns liquid. `CC(C)(C)c1cc(C(=O)N/N=C/c2ccccc2O)cc(C(C)(C)C)c1O` [Compound 1, Di-tert-butyl-4-hydroxy-N′-(2-hydroxybenzylidene)-benzohydrazine] came in with a melting point of 265 to 269 °C. The molecule further displayed an IC50 in series [1] (Homo sapiens, MCF7) of 4.7 ± 0.8 µM. Moreover, the inhibition at 1000 µM (stock) in series [2] (read-out: I (LOX Inhibition Assay)) worked out at 51.7 ± 4.2%. Moreover, the “Suppression of vital activity relative to the control” value in the series on HepG2 cells (3 µM) is reported as 25.8 ± 4.0%. Also, in the series with HepG2 cells (MTT), the “Minimal concentration that significantly suppresses vital activity” value is recorded as 3 µM. Also, it took 12.4 ± 2 µM to reach half-maximal cytotoxicity in series [3] (CC50 at 48 h). Moreover, the “Time after which decomposition (hydrolysis) is seen” value in series [4] was “approximately 1 h”.

In turn, `CC(C)(C)c1cc(C2=NN=Cc3ccccc3[O][Sn]([C](C)(C)C)([C](C)(C)C)[O]2)cc(C(C)(C)C)c1O` [Compound 5, Bu^t2SnL] had an IC50 in series [1] of 50.4 ± 12.6 µM. The “I (LOX Inhibition Assay)” value in series [2] is on record as 61.4 ± 5.3%.

Molecule `CC(C)(C)c1cc(C2=NN=Cc3ccccc3[O][Sn]([CH3])([CH3])[O]2)cc(C(C)(C)C)c1O` [Compound 2, Me2SnL] returned an IC50 in series [1] of 5.2 ± 1 µM. In addition, the “I (LOX Inhibition Assay)” value in series [2] worked out at 57.1 ± 4.7%.

In series [1], `CC(C)(C)c1cc(C2=NN=Cc3ccccc3[O][Sn]([c]3cc(C(C)(C)C)c(O)c(C(C)(C)C)c3)([c]3cc(C(C)(C)C)c(O)c(C(C)(C)C)c3)[O]2)cc(C(C)(C)C)c1O` [Compound 7, (2,6-Di-tert-butylphenol)2SnL] showed an IC50 of 32.7 ± 9.5 µM. In addition, the “I (LOX Inhibition Assay)” value in series [2] stood at 66.0 ± 5.9%.

In series [1], `C[CH2][Sn]1([CH2]C)[O]C(c2cc(C(C)(C)C)c(O)c(C(C)(C)C)c2)=NN=Cc2ccccc2[O]1` [Compound 3, Et2SnL] showed an IC50 of 3.7 ± 0.5 µM. Besides, the “I (LOX Inhibition Assay)” value in series [2] came to 61.1 ± 5.1%.
